Assays:
Assay type in all cases: cell-based
[1] = system: AR target genes (FKBP52, PMPEA 1, NKX3.1) in LNCaP-AR cells; assay: AR-dependent gene expression by qPCR in LNCaP-AR cells; settings: 18 hours; for AR agonist activity: expression of AR target genes: qPCR normalized to GAPDH
Experimental: (§1) LNCaP-AR cells were treated with hormone for 18 hours as indicated and then, RNA was isolated and FKBP52 expression was assessed by qPCR. GAPDH was used to normalize expression. Error represents standard deviation (Panel A). LNCaP cell proliferation assay in the presence of indicated compounds at 3 μM and then, the assay was performed in 10% FBS, and only viable cells were counted at each indicated day (Panel B). […] LNCaP/AR-F876L cells were treated with indicated compounds for 24 hours in 5% charcoal stripped FBS, and then, mRNA was prepared and the relative PSA mRNA was determined by qPCR (Panel D).
FIGS. 34A-34B are a series of graphs illustrating relative pMPEA1 mRNA levels (FIG. 34A) or relative NKX3.1 mRNA levels (FIG. 34B) after treated with SARDS compounds according to the present description. LNCaP-AR cells were treated with hormone for 18 hours and subsequently, mRNA was isolated and FKBP52 expression was assessed by qPCR. GAPDH was used to normalize expression. Error represents standard deviation.
The effects of the SARDS in the present description on AR-dependent gene expression in AR overexpressing LNCaP-AR cells, a validated cellular model of CRPC were examined. LNCaP-AR cells were treated with hormone for 18 hours as indicated. RNA was isolated and FKBP52 expression was assessed by QPCR. GAPDH was used to normalize expression. Error represents standard deviation.

[2] = target: T1, androgen receptor (AR) (Homo sapiens, UniProt P10275, T878A); assay: SARD-mediated AR degradation, western blot in LNCaP cells
T1 construct: endogenous in cells; host or cells: LNCaP
T1 sequence (P10275 1-920 T878A): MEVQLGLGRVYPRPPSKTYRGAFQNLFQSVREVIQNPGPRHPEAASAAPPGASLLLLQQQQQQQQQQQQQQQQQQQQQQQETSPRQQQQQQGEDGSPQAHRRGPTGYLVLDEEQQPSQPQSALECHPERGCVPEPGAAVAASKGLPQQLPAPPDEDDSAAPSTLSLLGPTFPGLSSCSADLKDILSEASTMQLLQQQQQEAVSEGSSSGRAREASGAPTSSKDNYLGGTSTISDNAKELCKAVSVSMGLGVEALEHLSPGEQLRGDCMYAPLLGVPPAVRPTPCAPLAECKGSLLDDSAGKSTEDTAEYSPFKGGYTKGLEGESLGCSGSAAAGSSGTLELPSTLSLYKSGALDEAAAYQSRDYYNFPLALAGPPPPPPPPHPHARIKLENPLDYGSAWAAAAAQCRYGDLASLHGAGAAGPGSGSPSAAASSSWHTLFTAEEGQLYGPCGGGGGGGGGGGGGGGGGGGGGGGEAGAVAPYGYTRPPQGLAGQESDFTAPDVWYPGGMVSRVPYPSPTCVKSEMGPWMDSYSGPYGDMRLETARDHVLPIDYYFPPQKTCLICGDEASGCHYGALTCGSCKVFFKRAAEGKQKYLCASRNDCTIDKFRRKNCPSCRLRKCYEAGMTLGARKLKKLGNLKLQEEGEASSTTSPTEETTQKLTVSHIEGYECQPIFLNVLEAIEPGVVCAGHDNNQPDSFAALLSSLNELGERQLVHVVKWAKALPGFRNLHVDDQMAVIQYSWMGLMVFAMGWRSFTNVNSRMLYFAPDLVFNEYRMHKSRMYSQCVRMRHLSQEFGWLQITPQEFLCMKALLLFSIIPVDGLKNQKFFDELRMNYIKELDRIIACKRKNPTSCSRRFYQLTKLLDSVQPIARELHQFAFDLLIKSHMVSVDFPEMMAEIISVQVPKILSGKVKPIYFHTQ
Experimental: FIG. 15A illustrates representative western blots of SARD mediated AR degradation. FIG. 15B is a graph illustrating the percentage of remaining AR as a function of SARD compound concentration.
(§2) FIGS. 32A-32B show a series of representative western blots of SARD-mediated AR degradation according to the present description. LNCaP cells were treated with indicated compounds for 24 hours and SARD 279 and RU59063 were used at 2.5 μM and 25 μM, respectively (FIG. 32A).
(§3) LNCaP and PC3 cells were obtained from ATCC. LNCaP/AR-876L and LNCaP/AR cells were generated by infecting LNCaP cells with the 876L or WT, respectively, AR. All cells were grown at 37° C. in RPMI and supplemented with 10% FBS, 100 U/ml carbenicillin and 100 μg/ml streptomycin. AR (5153) and Hsp70 (4872) antibodies were obtained from Cell Signaling. β-actin antibody (AC-74) was purchased from Sigma. Geldanamycin was purchased from Invivogen. The indicated cells were washed twice with cold PBS, and the cells were lysed in lysis buffer (1×PBS, 1% NP-40, 1 mM EDTA, 40 mM HEPES) with protease inhibitors. The lysates were cleared by centrifugation at 10,000 g for 5 min. The total protein concentration was determined by Bradford assay, and 10 μg of protein was loaded onto an 8% Bis-Tris gel. The blots were processed by standard procedures with the indicated antibodies, and the band intensities were quantified by ImageJ (US National Institutes of Health).

[3] = system: Hsp70; assay: Hsp70 immunoblot in LNCaP cells treated with SARD 279 and geldanamycin; settings: 24 hours
Experimental: as §2, §3

[4] = system: PC3 human prostate cancer cell line; assay: Cell proliferation assay with AR-negative PC-3 prostate cancer cells (CellTiterGlo); settings: 5% charcoal stripped FBS
Experimental: (§4) FIGS. 35A-35B are a series of graphs illustrating results of cell proliferation assay. Cell proliferation assay was performed with AR-negative PC-3 prostate cancer cells (FIG. 35A). Indicated compounds at shown doses were added to previously plated PC-3 cells in phenol-red free RPMI, supplemented with 5% charcoal stripped FBS. CellTiterGlo readings were taken at indicated days and the data are plotted as a % of proliferation from Day 0. Cell proliferation assay was performed with HEK293 cells (FIG. 35B), which were plated at 2,000 cells/well in a 6-well plate and dosed with indicated compounds at 3 μM.

[5] = system: LnCAP cells; assay: Proliferation of androgen-dependent LnCAP cells
Experimental: as §1
For FIG. 33, panel B, 2,000 cells in RPMI media, supplemented with 10% FBS, 100 U/ml carbenicillin and 100 μg/ml streptomycin, were plated into each well in a 6-well plate. Two days after plating, the cells were treated with indicated compounds. The number of cells in each well was counted with a hemocytometer using Trypan blue to distinguish viable cells.

[6] = system: HEK 293T; assay: Cell proliferation assay with HEK 293T cells; settings: 3 μM
Experimental: as §4

[7] = system: LnCAP cells; assay: LNCaP cell proliferation assay in the presence of 1 nM R1881 (CellTiterGlo); settings: 5% charcoal stripped serum, 7 days
Experimental: as §1
For FIG. 33, panel C, the LNCaP cells were washed with PBS, seeded at 5,000 cells per well in a 96-well plate in 5% Charcoal Stripped Serum (Omega) in phenol-red free RPMI media (Invitrogen). […] Baseline CellTiterGlo (Promega) reading was taken immediately after addition of compounds and 7 days later. The data are plotted so that the Y axis reflects the degree of proliferation at Day 7, compared to Day 0.

[8] = system: HeLa cells; assay: General cell toxicity in AR-independent HELA cells; settings: 1 μM, 48 h
Experimental: (§5) To access general cell toxicity, AR-independent HEK293 and HELA cells were treated with 1 μM SARD 279.

[9] = system: HEK293 cells; assay: General cell toxicity in AR-independent HEK293 cells; settings: HEK293, 1 μM, 48 h
Experimental: as §5

`CC1(C)C(=O)N(c2ccc(C#N)c(C(F)(F)F)c2)C(=S)N1CCCCO` [RU59063, 4-[3-(4-hydroxybutyl)-4,4-dimethyl-5-oxo-2-thioxoimidazolidin-1-yl]-2-(trifluoromethyl)benzonitrile, reference compound] was tested, and the “AR agonist activity: expression of AR target genes” value [1] was “increasing expression of a number of AR target genes” and the “AR degradation (in words)” value [2] was “no degradation was detected”.

For `COC1=C2C[C@@H](C)C[C@H](OC)[C@H](O)[C@@H](C)/C=C(\C)[C@H](OC(N)=O)[C@@H](OC)/C=C\C=C(/C)C(=O)NC(=CC1=O)C2=O` [geldanamycin, (4E,6Z,8S,9S,10E,12S,13R,14S,16R)-13-hydroxy-8,14,19-trimethoxy-4,10,12,16-tetramethyl-3,20,22-trioxo-2-azabicyclo[16.3.1]docosa-1(21),4,6,10,18-pentaen-9-yl carbamate], the “Hsp70 levels (immunoblot)” value [3] was “geldanamycin-dependent increase in Hsp70 levels”.

`CC1(C)C(=O)N(c2ccc(C#N)c(C(F)(F)F)c2)C(=S)N1CCCC(=O)NCCOCCOCCOCCOC12CC3CC(CC(C3)C1)C2` [SARD 033, N-(2-(2-(2-(2-(Adamantan-1-yloxy)ethoxy)ethoxy)ethoxy)ethyl)-4-(3-(4-cyano-3-(trifluoromethyl)phenyl)-5,5-dimethyl-4-oxo-2-thioxoimidazolidin-1-yl)butanamide] was tested, and the “Proliferation of PC3 cells” value [4] was “unaffected”, the “Cell growth / proliferation of LnCAP cells” value ([5]; 1 μM, several days) was “significantly attenuated cell growth” and the “Proliferation of LNCaP cells, viable cell count” value ([5]; 3 μM, 10% FBS, hemocytometer with Trypan blue, over 9 days) was “suppressed proliferation with similar efficacy to MDV3100”. The “Antagonism of gene expression induced by R1881” value ([1]; qPCR) was “antagonized gene expression induced by the synthetic androgen R1881”, the “AR agonist activity: expression of AR target genes” value [1] was “no such agonist activity” and the “Proliferation of HEK 293T cells” value [6] was “unaffected”.

For `CCOCCOCCNC(=O)CCCN1C(=S)N(c2ccc(C#N)c(C(F)(F)F)c2)C(=O)C1(C)C` [SARD 280, 4-(3-(4-Cyano-3-(trifluoromethyl)phenyl)-5,5-dimethyl-4-oxo-2-thioxoimidazolidin-1-yl)-N-(2-(2-ethoxyethoxy)ethyl)butanamide], the “AR degradation (in words)” value [2] was “affected degradation only at higher concentrations and did not achieve complete AR degradation at the concentrations assayed”.

In the case of `CNC(=O)c1ccc(N2C(=S)N(c3ccc(C#N)c(C(F)(F)F)c3)C(=O)C2(C)C)cc1F` [MDV3100, reference compound], the “Proliferation of PC3 cells” value [4] is reported as “unaffected”, the “Proliferation of HEK 293T cells” value [6] is reported as “unaffected” and the “Antiproliferative activity in the presence of 1 nM R1881” value [7] is reported as “ineffective in the presence of higher androgen levels”.

With `CC1(C)C(=O)N(c2ccc(C#N)c(C(F)(F)F)c2)C(=S)N1CCCC(=O)NCCOCCOC(=O)CC12CC3CC(CC(C3)C1)C2` [SARD 279, 2-(2-(4-(3-(4-Cyano-3-(trifluoromethyl)phenyl)-5,5-dimethyl-4-oxo-2-thioxoimidazolidin-1-yl)butanamido)ethoxy)ethyl 2-(adamantan-1-yl)acetate] the “Cytotoxicity compared to vehicle” value [8] was “did not display cytotoxic results”, the “Cytotoxicity compared to vehicle” value [9] was “did not display cytotoxic results” and the DC50 ([2]; read-out: DC50 (half maximum degradation concentration) of AR) was 1000 nM.

From patent publication US20160022642A1, “Compounds Useful for Promoting Protein Degradation and Methods Using Same” (Yale University, priority 2014, published 2016)
